Test [1] deals with S. mutans wild-type UA159. As to the kind of experiment: S. mutans acid resistance assay (growth in THYE at pH 7.5 and pH 5.5). In kind it is cell-based, Streptococcus mutans. To be noted: 5 μg/ml of peptide analog; for Growth (pH 7.5): THYE pH 7.5; for Acid resistance (pH 5.5): growth in THYE pH 5.5. The protocol:
The effect of peptides on acid tolerance was evaluated by assessment of growth in THYE at pH 7.5 and pH 5.5. Overnight S. mutans wild-type UA159 cells were diluted (1:20) with prewarmed THYE broth and incubated at 37° C. in air with 5% CO2 until an OD600 of approximately 0.4 was reached. A 20-fold dilution was made into 400 μl of either THYE pH 7.5 or THYE pH 5.5 broth containing different concentrations (0, 0.1, 0.5, 2, and 5 μg per ml) of peptide analogs and added in the individual wells of a 100-well Bioscreen C plate in triplicate. Wells without cells were used as blank controls. A Bioscreen microbiology reader (Labsystems, Helsinki, Finland) was employed to continuously grow cells and measure cell growth for 16 h at 37° C. Measurements were taken every 20 min with shaking to prevent cell aggregation.

A further test concerns S. sobrinus. The test can be described thus: Growth and biofilm formation on polystyrene microtiter plates, crystal violet. In kind it is cell-based, Streptococcus sobrinus. To be noted: for Biofilm formation: additional studies. The procedure: (§1) They were grown in Todd-Hewitt broth containing 0.3% yeast extract (THYE) at pH 5.5 or 7.5. […] In liquid media, cultures were incubated in closed screw-cap tubes without agitation at 37° C. in an anaerobic chamber (5% CO2).
(§2) Wells without cells were used as blank controls.

The next test deals with S. sanguis. The description is as above. In kind it is cell-based, Streptococcus sanguis. To be noted: for Biofilm formation: additional studies. The procedure: as §1, §2
The next test relates to S. gordonii. The test is described as above. It is filed as cell-based, Streptococcus gordonii. As to conditions: for Biofilm formation: additional studies. The protocol: as §1, §2
In the next test the test system is S. oralis. Described as above. It is filed as cell-based, Streptococcus oralis. To be noted: for Biofilm formation: additional studies. The protocol: as §1, §2
A further test relates to S. mitis. The description is as above. As to conditions: for Biofilm formation: additional studies. It is filed as cell-based, Streptococcus mitis. The protocol: as §1, §2
A further test concerns S. pneumoniae. The description is as above. It is filed as cell-based, Streptococcus pneumoniae. To be noted: for Biofilm formation: additional studies. The procedure:
as §1, §2

For test [2], the system named is S. mutans wild-type UA159. As to the kind of experiment: S. mutans competence assay (genetic transformation with plasmid pDL289). In kind it is cell-based, Streptococcus mutans. As to conditions: 5 μg/ml of peptide analog; for Transformation efficiency (vs no CSP): compared with natural transformation without exogenous CSP, 'no effect' = no significant difference by comparison with CSP; for Transformation efficiency (vs 5 μg CSP): compared with wild-type S. mutans CSP (5 μg CSP). The protocol: To determine if the peptide analogs had any impact on the development of genetic competence, S. mutans UA159 wild-type cells were assayed for genetic transformation. Overnight cultures of S. mutans UA159 were diluted (1:20) with prewarmed THYE broth and incubated at 37° C. in air with 5% CO2 until an optical density (OD) of approximately 0.1 at 600 nm was reached. The culture was then divided into six aliquots containing 1 μg/ml of plasmid pDL289 and different concentrations (0, 0.1, 0.5, 2, and 5 μg per ml) of peptide analogs. The cultures were incubated at 37° C. in air with 5% CO2 for 2.5 h, gently sonicated for 10 s to disperse the streptococcal chains, and spread on THYE plates containing kanamycin. Plates were incubated at 37° C. in air with 5% CO2 for 48 h. Total recipient cells were counted by spreading serial dilutions on THYE agar plates without antibiotic. Transformation efficiency was expressed as the percentage of kanamycin resistant transformants over the total number of recipient cells.

The subject of test [3] is S. mutans wild-type UA159. The test can be described thus: S. mutans biofilms formed on polystyrene microtiter plates (b), SDM-glucose, safranin (first study). To be noted: 5 μg/ml of peptide analog; ↓ = reduced biomass compared to biofilm grown in presence of wild-type CSP. It is filed as cell-based, Streptococcus mutans. The procedure: Biofilms were developed in 96-well polystyrene microtiter plates. […] Wells without cells were used as blank controls. […] After the incubation, the planktonic cells were carefully removed and the plates were air dried overnight. The plates were then stained with 0.01% (wt/vol) safranin for 10 min, rinsed with sterile distilled water and air dried. Biofilms were quantified by measuring the absorbance of stained biofilms at 490 nm with a microplate reader (model 3550; Bio-Rad Laboratories, Richmond, Calif.).

The test system of test [4] is mixed culture of the above Streptococcus spp. The test can be described thus: Mixed culture biofilm formation. It is filed as cell-based. To be noted: data not shown.
Excerpt: as §2

“Also recorded” adds a separate entry of the source. No end group written: not given here.

With “F1: S. mutans CSP analog, 2nd residue removed from C′ (SGSLSTFFVLFNRSFTQALGK; B2 peptide analog)”, the “Growth (pH 7.5)” value in [1] is given as “diminution of cell growth”. Moreover, the “Acid resistance (pH 5.5)” value in [1] is listed as “diminution of cell growth”. Further, the Biofilm formation entry in the test on S. sobrinus, in the test with S. sanguis, in the test on S. gordonii, in the test with S. oralis, in the test with S. mitis and with S. pneumoniae was “significantly reduce biofilm formation” each time.
On to “IH-2: S. mutans CSP analog, 1st residue removed from C′ (SGSLTFFRLFNRSFTQALGK; E1 peptide analog)”, for which, in test [2], the “Transformation efficiency (vs no CSP)” value was “no effect” and the “Transformation efficiency (vs 5 μg CSP)” value is listed as “no significant effect”. In test [1], the “Growth (pH 7.5)” value was “↓growth” and the “Acid resistance (pH 5.5)” value was “growth”. For the same substance, the “Bioflim formation (SDM-glucose)” value in test [3] was “no effect”.
As to SGTLSTFFRLFNRSFTQALGK [B3], the “Growth (pH 7.5)” value in [1] is given as “no effect”. The “Acid resistance (pH 5.5)” value in [1] is “significant decrease in cell growth”. Besides, the Biofilm formation result in the test on S. sobrinus, in the test with S. sanguis, in the test on S. gordonii, with S. oralis, with S. mitis and in the test with S. pneumoniae was “significantly reduce biofilm formation” each time.
For the substance “SGSLSTFFRLFNRSFTQALGA [G2, S. mutans CSP analog, substitution of K residue with A]”, in [1], the “Growth (pH 7.5)” value was “diminution of cell growth” and the “Acid resistance (pH 5.5)” value is given as “diminution of cell growth”.
Regarding “SGSLSTFFRLFNVSFTQALGK [D2, S. mutans CSP analog, substitution of 2nd R residue with V]”, in [1], the “Growth (pH 7.5)” value is “no effect” and the “Acid resistance (pH 5.5)” value is “significant decrease in cell growth”. Further, in [3], the “Bioflim formation (SDM-glucose)” value is listed as “no effect”.
Take “SGSLSTFFALFNRSFTQALGK (SGSLSTFFRLFNRSFTQALGA; G2 peptide analog) [C2, S. mutans CSP analog, substitution of 1st R residue with A]”: the “Growth (pH 7.5)” value in test [1] is on record as “no effect”. Besides, in test [1], the “Acid resistance (pH 5.5)” value was “significant decrease in cell growth”. For the same substance, in test [3], the “Bioflim formation (SDM-glucose)” value is listed as “no effect”. For the same substance, the Biofilm formation result in the test with S. sobrinus, in the test with S. sanguis, in the test on S. gordonii, in the test with S. oralis, with S. mitis and in the test on S. pneumoniae was “significantly reduce biofilm formation” throughout.
As for “SGSLSTFFVLFNRSFTQALGK (SGSLSTFFRLFNRSFTQALGV; F2 peptide analog) [B2, S. mutans CSP analog, substitution of 1st R residue with V]”, in test [1], the “Growth (pH 7.5)” value was “no effect” and the “Acid resistance (pH 5.5)” value was “significant decrease in cell growth”. The “Bioflim formation (SDM-glucose)” value in test [3] is reported as “no effect”.
As to “E1: S. mutans CSP analog, 5th residue removed from N′ (SGSLSTFFRLFNRSFTALGK; A2 peptide analog)”, in test [1], the “Growth (pH 7.5)” value is “↓growth” and the “Acid resistance (pH 5.5)” value was “growth”. For the same substance, the “Bioflim formation (SDM-glucose)” value in test [3] is given as “no effect”.
Consider “IH-1: S. mutans CSP analog, 1st residue removed from N′ (SGSSTFFRLFNRSFTQALGK; D1 peptide analog)”, for which, in [2], the “Transformation efficiency (vs no CSP)” value was “no effect^a” and the “Transformation efficiency (vs 5 μg CSP)” value is “no significant effect”. Also, in [1], the “Growth (pH 7.5)” value is given as “↓growth” and the “Acid resistance (pH 5.5)” value is listed as “growth”. Further, the “Bioflim formation (SDM-glucose)” value in test [3] is on record as “no effect”.
In the case of “D1: S. mutans CSP analog, 4th residue removed from N′ (SGSLSTFFRLFNRSFTQLGK; H1 peptide analog)”, in [1], the “Growth (pH 7.5)” value is “↓growth” and the “Acid resistance (pH 5.5)” value is reported as “growth”. In test [3], the “Bioflim formation (SDM-glucose)” value was “no effect”.
On the same counts, the results for “A2: S. mutans CSP analog, 5th residue removed from C′ (SGSLSTFFRLFNASFTQALGK; E2 peptide analog)” are “no effect”, “significant decrease in cell growth” and “no effect”.
With “G1: S. mutans CSP analog, 3rd residue removed from C′ (SGSLSTFFALFNRSFTQALGK; C2 peptide analog)”, in [1], the “Growth (pH 7.5)” value is “↓growth” and the “Acid resistance (pH 5.5)” value is on record as “growth”.
For the substance “C1: S. mutans CSP analog, 3rd residue removed from N′ (SGSLSTFFRLFNRSFTQAGK; G1 peptide analog)”, in test [2], the “Transformation efficiency (vs no CSP)” value is “no effect” and the “Transformation efficiency (vs 5 μg CSP)” value is reported as “no significant effect”. For the same substance, in test [1], the “Growth (pH 7.5)” value is given as “↓growth” and the “Acid resistance (pH 5.5)” value is recorded as “growth”. In test [3], the “Bioflim formation (SDM-glucose)” value is listed as “no effect”.
“B1: S. mutans CSP analog, 2nd residue removed from N′ (SGSLSTFFRLFNRSFTQALK; F1 peptide analog)”: in test [2], the “Transformation efficiency (vs no CSP)” value was “no effect” and the “Transformation efficiency (vs 5 μg CSP)” value is given as “no significant effect”. Also, in [1], the “Growth (pH 7.5)” value was “↓growth” and the “Acid resistance (pH 5.5)” value was “growth”. The “Bioflim formation (SDM-glucose)” value in [3] is reported as “no effect”.
As to “SGSLSTFFRLFNRSFTQALGV [F2, S. mutans CSP analog, substitution of K residue with V]”, in [1], the “Growth (pH 7.5)” value is on record as “diminution of cell growth” and the “Acid resistance (pH 5.5)” value was “diminution of cell growth”.
For SGSLSTFFRLFNASFTQALGK [E2], in test [1], the “Growth (pH 7.5)” value is recorded as “no effect; also recorded: without affecting the cell growth”. For the same substance, the “Acid resistance (pH 5.5)” value in [1] was “significant decrease in cell growth; also recorded: inhibited cell growth”. Besides, the Growth result in the test on S. sobrinus (5 μg/ml), in the test on S. sanguis (5 μg/ml), with S. gordonii (5 μg/ml), in the test with S. oralis (5 μg/ml), in the test with S. mitis (5 μg/ml) and in the test with S. pneumoniae (5 μg/ml) was “inhibitory effects” in each case. The Biofilm formation result in the test with S. sobrinus, with S. sanguis, in the test with S. gordonii, with S. oralis, in the test on S. mitis and in the test with S. pneumoniae was “significantly reduce biofilm formation” in each case. In addition, the “Mixed culture biofilm formation” value in test [4] is listed as “significant inhibitory effect”.
